“And” between values parts separate entries of the source, which are not always exact repeats. Identical values can stand only once.
System: β-glucuronidase in rat colon feces
Test: Rat colon fecal homogenate stability assay
Format: in vitro ADME
Settings: in vitro half-life in rat fecal supernatant-homogenate, anaerobic, 10 μM substrate, individual values when assay repeated; for half-life at 10 μM: male, rat, rat colon fecal supernatant-homogenate, read-out: T½
Excerpt: The compounds of the present invention contain a glucuronide prodrug moiety that is expected to be cleaved by β-glucuronidase enzyme. The objective of this assay was to determine the half-life for compounds of the present invention in the presence of β-glucuronidase in rat colon feces.
Following sacrifice of a naïve male rat (˜300 g) by cardiac puncture exsanguination, the colon was ligated and removed to an anaerobic chamber (AS-580, Anaerobe Systems). The fecal content was removed within the chamber and was diluted 1:10 with phosphate buffer (1 gram fecal content to 9 mL phosphate buffer) and the resulting mixture was homogenized using a handheld Omni Tissue Master. The fecal homogenate was centrifuged at 2000 g for 10 min to remove bulk material and the supernatant was removed and used for the incubations.
DMSO stock solutions (10 mM) of the test compounds and sulfasalazine (control) were prepared. Sulfasalazine was used as a positive control to confirm viability of the fecal supernatant-homogenate (see, e.g., Azad Khan et al., Clinical Science (1983) 64, 349-354). If the in vitro half-life (T½) for sulfasalazine in the fecal sample was less than 30 min, the fecal sample was deemed to be viable and in true anaerobic conditions. However, if the T½ for sulfasalazine was greater than 30 min, the fecal sample was typically contaminated with oxygen and was not viable. The final substrate concentration of each assay was 10 μM. Reactions were started by adding a 5 μL aliquot of diluted test compound stock solution into 300 μL of rat fecal supernatant-homogenate. At 0, 15, 30, 60, 90, and 120 min post reaction initiation, a 50 μL aliquot was removed and added to a mixture of 200 μL of acetonitrile with 3% formic acid and an internal standard. All samples were centrifuged at 2000 g for 10 min after which 50 μL of supernatant was diluted into 150 μL of water for analysis on an LC-MS system. In vitro half-lives (T½) for the test compounds were calculated as follows: T½=0.693/elimination rate constant. When the assay was performed more than once, individual values are reported.

| Structure (SMILES) | T½ | half-life at 10 μM [min] |
| --- | --- | --- |
| Cc1ccc(O[C@@H]2O[C@H](C(=O)O)[C@@H](O)[C@H](O)[C@H]2O)c(N(C)C(=O)n2ccc3c(N(C)[C@H]4CN(C(=O)CC#N)CC[C@H]4C)ncnc32)c1 [Compound III-3, (2S,3S,4S,5R,6S)-6-(2-(4-(((3R,4R)-1-(2-Cyanoacetyl)-4-methylpiperidin-3-yl)(methyl)amino)-N-methyl-7H-pyrrolo[2,3-d]pyrimidine-7-carboxamido)-4-methylphenoxy)-3,4,5-trihydroxytetrahydro-2H-pyran-2-carboxylic Acid] | < 15 min | 20 |
| C[C@@H]1CCN(C(=O)CC#N)C[C@@H]1N(C)c1ncnc2c1ccn2C(=O)N(C)c1cc(C(F)(F)F)ccc1O[C@@H]1O[C@H](C(=O)O)[C@@H](O)[C@H](O)[C@H]1O [Compound III-4, (2S,3S,4S,5R,6S)-6-(2-(4-(((3R,4R)-1-(2-cyanoacetyl)-4-methylpiperidin-3-yl)(methyl)amino)-N-methyl-7H-pyrrolo[2,3-d]pyrimidine-7-carboxamido)-4-(trifluoromethyl)phenoxy)-3,4,5-trihydroxytetrahydro-2H-pyran-2-carboxylic Acid] | 6 min and < 15 min |  |
| C[C@@H]1CCN(C(=O)CC#N)C[C@@H]1N(C)c1ncnc2c1ccn2C(=O)N(C)c1cc(Cl)ccc1O[C@@H]1O[C@H](C(=O)O)[C@@H](O)[C@H](O)[C@H]1O [Compound III-5, (2S,3S,4S,5R,6S)-6-(4-Chloro-2-(4-(((3R,4R)-1-(2-cyanoacetyl)-4-methylpiperidin-3-yl)(methyl)amino)-N-methyl-7H-pyrrolo[2,3-d]pyrimidine-7-carboxamido)phenoxy)-3,4,5-trihydroxytetrahydro-2H-pyran-2-carboxylic Acid] |  | < 15 |
| C[C@@H]1CCN(C(=O)CC#N)C[C@@H]1N(C)c1ncnc2c1ccn2C(=O)N(C)Cc1cc([N+](=O)[O-])ccc1O[C@@H]1O[C@H](C(=O)O)[C@@H](O)[C@H](O)[C@H]1O [Compound III-7, (2S,3S,4S,5R,6S)-6-(2-((4-(((3R,4R)-1-(2-Cyanoacetyl)-4-methylpiperidin-3-yl)(methyl)amino)-N-methyl-7H-pyrrolo[2,3-d]pyrimidine-7-carboxamido)methyl)-4-nitrophenoxy)-3,4,5-trihydroxytetrahydro-2H-pyran-2-carboxylic Acid] | <15, <15 min | < 15 |

The remaining lines, values ahead:

| T½ | half-life at 10 μM [min] | Structure (SMILES) |
| --- | --- | --- |
| <15, <15 min | < 15 | C[C@@H]1CCN(C(=O)CC#N)C[C@@H]1N(C)c1ncnc2c1ccn2C(=O)N(C)CCN(C)C(=O)OCc1ccccc1O[C@@H]1O[C@H](C(=O)O)[C@@H](O)[C@H](O)[C@H]1O [Compound V-1, (2S,3S,4S,5R,6S)-6-(2-((((2-(4-(((3R,4R)-1-(2-Cyanoacetyl)-4-methylpiperidin-3-yl)(methyl)amino)-N-methyl-7H-pyrrolo[2,3-d]pyrimidine-7-carboxamido)ethyl)(methyl)carbamoyl)oxy)methyl)phenoxy)-3,4,5-trihydroxytetrahydro-2H-pyran-2-carboxylic Acid] |
|  | < 15 | C[C@@H]1CCN(C(=O)CC#N)C[C@@H]1N(C)c1ncnc2c1ccn2C(=O)N(C)CCN(C)C(=O)OCc1ncccc1O[C@@H]1O[C@H](C(=O)O)[C@@H](O)[C@H](O)[C@H]1O [Compound V-2, (2S,3S,4S,5R,6S)-6-((2-((((2-(4-(((3R,4R)-1-(2-Cyanoacetyl)-4-methylpiperidin-3-yl)(methyl)amino)-N-methyl-7H-pyrrolo[2,3-d]pyrimidine-7-carboxamido)ethyl)(methyl)carbamoyl)oxy)methyl)pyridin-3-yl)oxy)-3,4,5-trihydroxytetrahydro-2H-pyran-2-carboxylic Acid] |
